Source: PubChem BioAssay (NCI)
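Results reflect a 48-hour exposure of cells in 96-well plates to compound at five concentrations. TGI marks complete inhibition of growth.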

Assays:
Experiment in all cases: growth of human tumour cells (NCI), 48 h
[1] = tested on: UACC-62 melanoma
[2] = tested on: U251 CNS
[3] = tested on: HCT-116 colon
[4] = tested on: CCRF-CEM leukemia
[5] = tested on: MDA-N
[6] = tested on: SW-620 colon
[7] = tested on: NCI-H23 lung
[8] = tested on: IGROV1 ovarian
[9] = tested on: K-562 leukemia
[10] = tested on: SK-MEL-2 melanoma
[11] = tested on: COLO 205 colon
[12] = tested on: KM12 colon
[13] = tested on: TK-10 renal
[14] = tested on: MOLT-4 leukemia
[15] = tested on: A498 renal
[16] = tested on: MALME-3M melanoma
[17] = tested on: OVCAR-8 ovarian
[18] = tested on: OVCAR-4 ovarian

Compound	TGI [1]	TGI [2]	TGI [3]	TGI [4]	TGI [5]	TGI [6]	TGI [7]	TGI [8]	TGI [9]	TGI [10]	TGI [11]	TGI [12]	TGI [13]	TGI [14]	TGI [15]	TGI [16]	TGI [17]	TGI [18]
C[C@]12CC[C@H]3[C@@H](CCC4=CC(=O)CC[C@@H]43)[C@@H]1CC[C@]2(O)C(N)=O	> 100 µM	> 100 µM	> 100 µM	> 100 µM	> 100 µM	> 100 µM	> 100 µM	> 100 µM	> 100 µM	> 100 µM	> 100 µM	> 100 µM	> 100 µM	> 100 µM	> 100 µM	> 100 µM	> 100 µM	> 100 µM
O=C1c2ccccc2-c2nnc(-c3ccc([N+](=O)[O-])cc3)cc21	> 10 µM	> 10 µM	> 10 µM	> 10 µM	> 10 µM	> 10 µM	> 10 µM	> 10 µM	> 10 µM	> 10 µM	> 10 µM	> 10 µM	> 10 µM	> 10 µM	> 10 µM	> 10 µM	> 10 µM	> 10 µM
Cc1c2c(cc3c1C(=O)C(=O)C([C@@H](C)CO)=C3O)C(C)(C)CCC2	> 100 µM	53.8 µM	93.1 µM	40.7 µM	> 100 µM	> 100 µM	45.2 µM	> 100 µM	> 100 µM	47.2 µM	> 100 µM	34.2 µM	> 100 µM	93.2 µM	98.9 µM	57.1 µM	> 100 µM	> 100 µM
C=CCN1C(=O)/C(=C/c2ccc(Cl)cc2)N=C1SC/C=C/C	> 100 µM	84.8 µM	> 100 µM	> 100 µM	> 100 µM	> 100 µM	> 100 µM	> 100 µM	> 100 µM	68.2 µM	> 100 µM	> 100 µM	> 100 µM	43.8 µM	> 100 µM	> 100 µM	> 100 µM	> 100 µM
O=C1c2c(Br)sc(Br)c2C(NC(=O)C(F)(F)F)C1O (stereo unspecified)	40.8 µM	37.4 µM	32.6 µM	56.3 µM	40.4 µM	40 µM	46.3 µM	42.3 µM	> 100 µM	40.9 µM	33.4 µM	91.6 µM	> 100 µM	> 100 µM	> 100 µM	43.7 µM	44.1 µM	34.8 µM
CCOc1cccc(C=Nc2ccccc2SSc2ccccc2N=Cc2cccc(OCC)c2O)c1O	22 µM	13.2 µM	11.2 µM	12.2 µM	37.7 µM	23.1 µM	20.3 µM	15.9 µM	27.6 µM	37.7 µM	12.4 µM	19.6 µM	51.4 µM	10.4 µM	44 µM	23.6 µM	8.33 µM	14.3 µM
COC(=O)c1ccccc1/C=C1\Cc2c(C)c3c(c(C)c2C1=O)CCC3	> 100 µM	> 100 µM	> 100 µM	> 100 µM	> 100 µM	> 100 µM	> 100 µM	> 100 µM	> 100 µM	> 100 µM	> 100 µM	> 100 µM	> 100 µM	> 100 µM	> 100 µM	> 100 µM	> 100 µM	> 100 µM
